In patent US9487470B2, “4-((substituted phenyl) difluoromethyl) phenoxy carboxylic acid derivative, and preparation method and uses thereof” (Zhejiang Hisun Pharmaceutical Co., Ltd., priority 2012, dated 2016):

System: hyperlipoidemia model of Goldenhamsters (blood plasma TC, TG, HDL-C, LDL-C)
Assay: Pharmacological test group 1: effects on blood lipid levels of Goldenhamsters in a hyperlipoidemia model
Assay type: in vivo
Conditions: for HDL-C, after administration / LDL-C, after administration / TC, after administration / TG, after administration: 40 mg/kg intragastric, 1 week, high-lipid feed continued, blood plasma, x±s, asterisks = P vs before administration; for effect on HDL-C, in comparison with the results before administration (in words) / effect on TC, in comparison with the results before administration (in words) / effect on TG, in comparison with the results before administration (in words): t test after vs before administration
Description: Animals: 134 male Goldenhamsters, aged 8 weeks, body weight 80-100 g, provided by Vital River Laboratories, Beijing. […] Kits: The kits for total cholesterol (TC), triglyceride (TG), and high density lipoprotein cholesterol (HDL-C) were provided by SYSMEX, and the kits for low density lipoprotein cholesterol (LDL-C) were provided by Shanghai Kehua Bio-engineering Co., Ltd. Apparatus: SYSMEX Automatic Biochemistry Analyzer, Bechman centrifuge, Setoris balance. The animals were acclimatized and fed for 1 week, ad lib, light cycle was 10 h/14 h, and then feeds with high lipid content were fed to the animals (formulation: 0.3% cholesterol, 20% palm oil, and 79.7% basic feeds). The animals were fed for 10 days, and were fasted at 4:00 pm on the 10th day (fasted for 16 h). On the 11th day, the animals were anaesthetized with ethyl ether, weighted, and then 0.5 ml blood was collected from vena orbitalis posterior. The blood was anticoagulated with heparin, and was centrifugated at 5000 rpm for 10 min. The blood plasma was taken, and the levels of TC, TG, HDL-C, and LDL-C in blood plasma were determined using automatic biochemistry analyzer. The animals were acclimatized and fed for 1 week, ad lib, light cycle was 10 h/14 h, and then feeds with high lipid content were fed to the animals (formulation: 0.3% cholesterol, 20% palm oil, and 79.7% basic feeds). The animals were fed for 2 weeks, and were fasted at 4:00 pm on the […] (fasted for 16 h). On the 22nd day, the animals were anaesthetized with ethyl ether, weighted, and then 0.5 ml blood was collected from vena orbitalis posterior. The blood was anticoagulated with heparin, and was centrifugated at 5000 rpm for 10 min. The blood plasma was taken, and the levels of TC, TG, HDL-C, and LDL-C in blood plasma were determined using automatic biochemistry analyzer. […] During the administration, feeds with high lipid content were continuously fed to the animals. The animals were fed for 1 week, and were fasted at 4:00 pm on the 7th day. On the 8th day, the animals were anaesthetized with ethyl ether, weighted, and then 0.5 ml blood was collected from vena orbitalis posterior. The blood was anticoagulated with heparin, and was centrifugated at 5000 rpm for 10 min. The blood plasma was taken, and the levels of TC, TG, HDL-C, and LDL-C in blood plasma were determined using automatic biochemistry analyzer. The results were represented by x±s, and t test was employed for comparing the results obtained before and after administration.

| Compound | regulating effects on the levels of blood lipid (conclusion from table 2) (40 mg/kg) | HDL-C, after administration | LDL-C, after administration | TC, after administration | TG, after administration | effect on HDL-C, in comparison with the results before administration (in words) (40 mg/kg) | effect on TC, in comparison with the results before administration (in words) (40 mg/kg) | effect on TG, in comparison with the results before administration (in words) (40 mg/kg) | therapeutic effect compared with fenofibrate (conclusion from table 2) (40 mg/kg, fenofibrate 40 mg/kg) |
| --- | --- | --- | --- | --- | --- | --- | --- | --- | --- |
| CC(C)OC(=O)C(C)(C)Oc1ccc(C(F)(F)c2ccc(F)cc2)cc1 [HS003-006, Isopropyl 2-(4-((4-fluorophenyl)difluoromethyl)phenoxy)-2-methylpropionate] | tend to the effects of significantly decreasing TG, TC, and LDL-C | 3.64 ± 0.31 | 1.02 ± 0.27 | 8.96 ± 0.77 | 1.06 ± 0.29 | increases | significantly decreases | significantly decreases |  |
| CC(C)OC(=O)C(C)(C)Oc1ccc(C(F)(F)c2ccc(C(F)(F)F)cc2)cc1 [HS003-007, Isopropyl 2-(4-((4-trifluoromethylphenyl)difluoromethyl)phenoxy)-2-methylpropionate] | tend to the effects of significantly decreasing TG, TC, and LDL-C | 2.99 ± 0.13 | 1.26 ± 0.22 | 7.42 ± 0.71 | 2.12 ± 0.43 |  | significantly decreases |  |  |
| CC(C)OC(=O)C(C)(C)Oc1ccc(C(F)(F)c2ccccc2C(F)(F)F)cc1 [HS003-016, Isopropyl 2-(4-((2-trifluoromethylphenyl)difluoromethyl)phenoxy)-2-methylpropionate] | tend to the effects of significantly decreasing TG, TC, and LDL-C | 3.40 ± 0.32 | 1.0 ± 0.23 | 8.44 ± 1.12 | 1.23 ± 0.42 |  | significantly decreases |  |  |
| CC(C)OC(=O)C(C)(C)Oc1ccc(C(F)(F)c2cccc(C(F)(F)F)c2)cc1 [HS003-013, Isopropyl 2-(4-((3-trifluoromethylphenyl)difluoromethyl)phenoxy)-2-methylpropionate] | tend to the effects of significantly decreasing TG, TC, and LDL-C | 3.12 ± 0.25 | 1.46 ± 0.46 | 8.93 ± 0.53 | 1.84 ± 0.45 |  | significantly decreases |  |  |
| CCOC(=O)CCCOc1ccc(C(F)(F)c2ccc(Cl)cc2)cc1 [HS003-026, Ethyl 4-(4-((4-chlorophenyl)difluoromethyl)phenoxy)butyrate] | tend to the effect of significantly decreasing TG and increasing HDL-C | 4.13 ± 0.32 | 1.69 ± 0.47 | 11.18 ± 1.6 | 0.82 ± 0.24 | significantly increases |  | significantly decreases | outstanding therapeutic effects on decreasing TG, and are significantly superior to fenofibrate |
| O=C(COc1ccc(C(F)(F)c2ccc(Cl)cc2)cc1)OCc1ccccc1 [HS003-021, Benzyl 2-(4-((4-chlorophenyl)difluoromethyl)phenoxy)-acetate] | tend to the effect of significantly decreasing TG and increasing HDL-C | 4.46 ± 0.23 | 2.08 ± 0.89 | 13.37 ± 3.3 | 1.1 ± 0.53 | significantly increases |  | significantly decreases |  |
